Experimental data taken from patent US9546152B2 (MERCK SHARP & DOHME CORP., priority 2012, dated 2017).
pIC50, pKi: −log10 of the molar value.

Assays:
human orexin-2 receptor [1] = biological target: T1, human orexin-2 receptor (Homo sapiens (Human), UniProt O43614); experiment: radioligand binding assay, orexin-2 receptor; settings: membranes prepared from CHO cells expressing the OX2 receptor; read-out: hOX2R BIND hKi
Experimental: (§1) In a typical experiment the OX1 and OX2 receptor antagonistic activity of the compounds of the present invention was determined in accordance with the following experimental method. For intracellular calcium measurements, Chinese hamster ovary (CHO) cells expressing the rat orexin-1 receptor or the human orexin-2 receptor, are grown in Iscove's modified DMEM containing 2 mM L-glutamine, […], 1% hypoxanthine-thymidine supplement, 100 U/ml penicillin, 100 μg/ml streptomycin and 10% heat-inactivated fetal calf serum (FCS). The cells are seeded at 20,000 cells/well into Becton-Dickinson black 384-well clear bottom sterile plates coated with poly-D-lysine. All reagents were from GIBCO-Invitrogen Corp. The seeded plates are incubated overnight at 37° C. and 5% CO2. Ala-6,12 human orexin-A as the agonist is prepared as a 1 mM stock solution in 1% bovine serum albumin (BSA) and diluted in assay buffer (HBSS containing 20 mM HEPES, 0.1% BSA and 2.5 mM probenecid, pH7.4) for use in the assay at a final concentration of 70 pM. Test compounds are prepared as 10 mM stock solution in DMSO, then diluted in 384-well plates, first in DMSO, then assay buffer. On the day of the assay, cells are washed 3 times with 100 μl assay buffer and then incubated for 60 min (37° C., 5% CO2) in 60 μl assay buffer containing 1 μM Fluo-4AM ester, 0.02% pluronic acid, and 1% BSA. The dye loading solution is then aspirated and cells are washed 3 times with 100 μl assay buffer. 30 μl of that same buffer is left in each well. Within the Fluorescent Imaging Plate Reader (FLIPR, Molecular Devices), test compounds are added to the plate in a volume of 25 μl, incubated for 5 min and finally 25 μl of agonist is added. Fluorescence is measured for each well at 1 second intervals for 5 minutes and the height of each fluorescence peak is compared to the height of the fluorescence peak induced by 70 pM Ala-6,12 orexin-A with buffer in place of antagonist. […] Alternatively, compound potency can be assessed by a radioligand binding assay (described in Bergman et. al. Bioorg. Med. Chem. Lett. 2008, 18, 1425-1430) in which the inhibition constant (Ki) is determined in membranes prepared from CHO cells expressing either the OX1 or OX2 receptor. The intrinsic orexin receptor antagonist activity of a compound which may be used in the present invention may be determined by these assays.

human orexin-2 receptor [2] = biological target: T1, human orexin-2 receptor; experiment: FLIPR Ca2+ Flux Assay, orexin-2 receptor; assay type: cell-based; settings: CHO cells expressing the human orexin-2 receptor; agonist 70 pM Ala-6,12 human orexin-A; read-out: hOX2R FLIPR IC50
Experimental: as §1

rat orexin-1 receptor = rat orexin-1 receptor (Rattus norvegicus (Rat), UniProt P56718); experiment: FLIPR Ca2+ Flux Assay, orexin-1 receptor; assay type: cell-based; settings: CHO cells expressing the rat orexin-1 receptor; agonist 70 pM Ala-6,12 human orexin-A; read-out: hOX1R FLIPR IC50
Chain of rat orexin-1 receptor (P56718 whole entry): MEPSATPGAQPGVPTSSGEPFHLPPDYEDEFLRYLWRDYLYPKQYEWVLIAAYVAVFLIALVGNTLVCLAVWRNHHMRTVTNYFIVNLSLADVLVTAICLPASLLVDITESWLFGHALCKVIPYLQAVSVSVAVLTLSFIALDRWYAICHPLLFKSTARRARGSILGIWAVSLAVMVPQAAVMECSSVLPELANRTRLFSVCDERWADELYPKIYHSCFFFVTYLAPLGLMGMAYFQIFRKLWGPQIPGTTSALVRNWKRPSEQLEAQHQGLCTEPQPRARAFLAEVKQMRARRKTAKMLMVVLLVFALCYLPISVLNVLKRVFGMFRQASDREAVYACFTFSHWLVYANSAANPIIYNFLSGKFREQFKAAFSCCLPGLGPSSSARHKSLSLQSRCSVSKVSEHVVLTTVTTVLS
Experimental: as §1

T1 sequence (O43614 whole entry): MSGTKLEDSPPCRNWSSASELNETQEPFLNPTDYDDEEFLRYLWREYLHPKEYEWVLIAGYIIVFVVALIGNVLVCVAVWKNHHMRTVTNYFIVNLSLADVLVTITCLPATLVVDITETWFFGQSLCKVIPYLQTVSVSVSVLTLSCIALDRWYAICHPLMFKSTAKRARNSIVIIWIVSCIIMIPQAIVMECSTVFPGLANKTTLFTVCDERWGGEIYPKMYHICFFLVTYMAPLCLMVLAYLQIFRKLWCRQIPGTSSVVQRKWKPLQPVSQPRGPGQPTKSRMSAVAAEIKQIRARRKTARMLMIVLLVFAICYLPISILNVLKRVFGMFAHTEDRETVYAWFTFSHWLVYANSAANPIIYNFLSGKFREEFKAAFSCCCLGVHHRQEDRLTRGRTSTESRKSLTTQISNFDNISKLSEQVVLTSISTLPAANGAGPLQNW

| Structure (SMILES) | pKi (human orexin-2 receptor [1]) | pIC50 (human orexin-2 receptor [2]) | pIC50 (rat orexin-1 receptor) |
| --- | --- | --- | --- |
| Cc1c(C#N)ccnc1O[C@@H]1CC[C@@H](C)N(C(=O)c2ccc(Cl)cc2-n2nccn2)C1 [Example 4, 2-{[(3R,6R)-1-{[4-chloro-2-(2H-1,2,3-triazol-2-yl)phenyl]carbonyl}-6-methylpiperidin-3-yl]oxy}-3-methylpyridine-4-carbonitrile] | 9.40 | 7.92 | – |
| COc1ccc(C(=O)N2C[C@H](Oc3nccc(C#N)c3C)CC[C@H]2C)c(C2CC2)n1 [Example 5, 2-({(3R,6R)-1-[(2-cyclopropyl-6-methoxypyridin-3-yl)carbonyl]-6-methylpiperidin-3-yl}oxy)-3-methylpyridine-4-carbonitrile] | 8.77 | 7.49 | – |
| COc1ccc(C(=O)N2C[C@H](Oc3nccc(C#N)c3C)CC[C@H]2C)c(-n2nccn2)c1 [Example 7, 2-{[(3R,6R)-1-{[4-methoxy-2-(2H-1,2,3-triazol-2-yl)phenyl]carbonyl}-6-methylpiperidin-3-yl]oxy}-3-methylpyridine-4-carbonitrile] | 8.89 | 7.89 | – |
| Cc1c(C#N)ccnc1O[C@@H]1CC[C@@H](C)N(C(=O)c2cccc(F)c2-n2nccn2)C1 [Example 12, 2-{[(3R,6R)-1-{[3-fluoro-2-(2H-1,2,3-triazol-2-yl)phenyl]carbonyl}-6-methylpiperidin-3-yl]oxy}-3-methylpyridine-4-carbonitrile] | 9.00 | 7.92 | – |
| Cc1c(C#N)ccnc1O[C@@H]1CC[C@@H](C)N(C(=O)c2c(F)cccc2-c2nccs2)C1 [Example 18, 2-{[(3R,6R)-1-{[2-fluoro-6-(1,3-thiazol-2-yl)phenyl]carbonyl}-6-methylpiperidin-3-yl]oxy}-3-methylpyridine-4-carbonitrile] | 10.00 | 8.15 | – |
| Cc1c(C#N)ccnc1O[C@@H]1CC[C@@H](C)N(C(=O)c2sncc2-c2ccccc2)C1 [Example 20, 3-methyl-2-({(3R,6R)-6-methyl-1-[(4-phenylisothiazol-5-yl)carbonyl]piperidin-3-yl}oxy)pyridine-4-carbonitrile] | 7.82 | 7.05 | – |
| Cc1c(C#N)ccnc1O[C@@H]1CC[C@@H](C)N(C(=O)c2ccccc2OC(C)C)C1 [Example 21, 3-methyl-2-{[(3R,6R)-6-methyl-1-{[2-(1-methylethoxy)phenyl]carbonyl}piperidin-3-yl]oxy}pyridine-4-carbonitrile] | 9.22 | 8.10 | – |
| Cc1c(C#N)ccnc1O[C@@H]1CC[C@@H](C)N(C(=O)c2ccncc2-c2ccccc2)C1 [Example 23, 3-methyl-2-({(3R,6R)-6-methyl-1-[(3-phenylpyridin-4-yl)carbonyl]piperidin-3-yl}oxy)pyridine-4-carbonitrile] | 7.78 | 7.16 | – |
| Cc1c(C#N)ccnc1O[C@@H]1CC[C@@H](C)N(C(=O)c2ccccc2-c2ncco2)C1 [Example 27, 3-methyl-2-{[(3R,6R)-6-methyl-1-{[2-(1,3-oxazol-2-yl)phenyl]carbonyl}piperidin-3-yl]oxy}pyridine-4-carbonitrile] | 9.52 | 7.77 | – |
| Cc1c(C#N)ccnc1O[C@@H]1CC[C@@H](C)N(C(=O)c2ccccc2-c2cscn2)C1 [Example 33, 3-methyl-2-{[(3R,6R)-6-methyl-1-{[2-(1,3-thiazol-4-yl)phenyl]carbonyl}piperidin-3-yl]oxy}pyridine-4-carbonitrile] | 9.70 | 8.22 | – |
| Cc1c(C#N)ccnc1O[C@@H]1CC[C@@H](C)N(C(=O)c2ccccc2-c2nccs2)C1 [Example 44, 3-methyl-2-{[(3R,6R)-6-methyl-1-{[2-(1,3-thiazol-2-yl)phenyl]carbonyl}piperidin-3-yl]oxy}pyridine-4-carbonitrile] | 10.00 | 8.10 | – |
| COc1ccc(C(=O)N2C[C@H](Oc3nccc(C#N)c3C)CC[C@H]2C)c(-c2ccncc2)n1 [Example 48, 2-({(3R,6R)-1-[(6-methoxy-2,4′-bipyridin-3-yl)carbonyl]-6-methylpiperidin-3-yl}oxy)-3-methylpyridine-4-carbonitrile] | 8.05 | 7.19 | – |
| Cc1c(C#N)ccnc1O[C@@H]1CC[C@@H](C)N(C(=O)c2nscc2-c2ccccc2)C1 [Example 50] | 8.70 | 7.66 | – |
| Cc1c(C#N)ccnc1O[C@@H]1CC[C@@H](C)N(C(=O)c2nscc2-n2nccn2)C1 [Example 55, 3-methyl-2-{[(3R,6R)-6-methyl-1-{[4-(2H-1,2,3-triazol-2-yl)isothiazol-3-yl]carbonyl}piperidin-3-yl]oxy}pyridine-4-carbonitrile] | 8.13 | 7.09 | – |
| Cc1c(C#N)ccnc1O[C@@H]1CC[C@@H](C)N(C(=O)c2ccccc2OC(F)(F)F)C1 [Example 62, 3-methyl-2-{[(3R,6R)-6-methyl-1-{[2-(trifluoromethoxy)phenyl]carbonyl}piperidin-3-yl]oxy}pyridine-4-carbonitrile] | 9.10 | 7.80 | – |
| Cc1c(C#N)ccnc1O[C@@H]1CC[C@@H](C)N(C(=O)C2=C(c3ccccn3)CCC2)C1 [Example 63, 3-methyl-2-({(3R,6R)-6-methyl-1-[(2-pyridin-2-ylcyclopent-1-en-1-yl)carbonyl]piperidin-3-yl}oxy)pyridine-4-carbonitrile] | 8.40 | 7.23 | – |
| COc1ccc(C(=O)N2C[C@H](Oc3nccc(C#N)c3C)CC[C@H]2C)c(C2CCC2)n1 [Example 66] | 8.85 | 7.11 | – |
| Cc1c(C#N)ccnc1O[C@@H]1CC[C@@H](C)N(C(=O)c2cc(F)ccc2-n2nccn2)C1 [Example 69, 2-{[(3R,6R)-1-{[5-fluoro-2-(2H-1,2,3-triazol-2-yl)phenyl]carbonyl}-6-methylpiperidin-3-yl]oxy}-3-methylpyridine-4-carbonitrile] | 9.22 | 7.96 | – |
| COc1ccc(C(=O)N2C[C@H](Oc3nccc(C#N)c3C)CC[C@H]2C)c(OC)n1 [Example 73, 2-({(3R,6R)-1-[(2,6-dimethoxypyridin-3-yl)carbonyl]-6-methylpiperidin-3-yl}oxy)-3-methylpyridine-4-carbonitrile] | 7.49 | – | – |
| COc1ccc(C(=O)N2C[C@H](Oc3nccc(C#N)c3C)CC[C@H]2C)c(-c2cnn(C)c2)n1 [Example 80, 2-{[(3R,6R)-1-{[6-methoxy-2-(1-methyl-1H-pyrazol-4-yl)pyridin-3-yl]carbonyl}-6-methylpiperidin-3-yl]oxy}-3-methylpyridine-4-carbonitrile] | – | 6.77 | 5.00 |
| COc1cc(-n2nccn2)c(C(=O)N2C[C@H](Oc3nccc(C#N)c3C)CC[C@H]2C)cn1 [Example 85, 2-{[(3R,6R)-1-{[6-methoxy-4-(2H-1,2,3-triazol-2-yl)pyridin-3-yl]carbonyl}-6-methylpiperidin-3-yl]oxy}-3-methylpyridine-4-carbonitrile] | 7.36 | – | – |
| CSc1ccc(C(=O)N2C[C@H](Oc3nccc(C#N)c3C)CC[C@H]2C)c(-n2nccn2)n1 [Example 86, 3-methyl-2-{[(3R,6R)-6-methyl-1-{[6-(methylsulfanyl)-2-(2H-1,2,3-triazol-2-yl)pyridin-3-yl]carbonyl}-piperidin-3-yl]oxy}pyridine-4-carbonitrile] | 8.29 | 6.90 | – |
| CCc1c(C#N)ccnc1O[C@@H]1CC[C@@H](C)N(C(=O)c2ccccc2-n2nccn2)C1 [Example 93, 3-ethyl-2-{[(3R,6R)-6-methyl-1-{[2-(2H-1,2,3-triazol-2-yl)phenyl]carbonyl}piperidin-3-yl]oxy}pyridine-4-carbonitrile] | 10.00 | 8.10 | – |
| COc1c(C#N)ccnc1O[C@@H]1CC[C@@H](C)N(C(=O)c2ccc(F)cc2-n2nccn2)C1 [Example 98, 2-{[(3R,6R)-1-{[4-fluoro-2-(2H-1,2,3-triazol-2-yl)phenyl]carbonyl}-6-methylpiperidin-3-yl]oxy}-3-methoxypyridine-4-carbonitrile] | 9.52 | 7.72 | – |
| COc1c(C#N)ccnc1O[C@@H]1CC[C@@H](C)N(C(=O)c2ccsc2-n2nccn2)C1 [Example 106, 3-methoxy-2-{[(3R,6R)-6-methyl-1-{[2-(2H-1,2,3-triazol-2-yl)thiophen-3-yl]carbonyl}piperidin-3-yl]oxy}pyridine-4-carbonitrile] | – | 8.10 | 5.71 |
